{"source": "PubChem BioAssay AID1963829", "about": "(Molecular Pharmacology Branch, DTP, NCI, 2024)", "tested_on": "935938-334-R-J1-PDC complex spheroid viability", "assay": "Anticancer human tumor 935938-334-R-J1-PDC patient-derived small intestine adenocarcinoma cell line growth inhibition [POLQ]", "conditions": "for pIC50: curve of first compound; for viability, T/C: stronger effect = lower value", "in_short": "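Three-cell-type spheroids modelling solid tumor plus stroma served as the readout system; POL inhibitors were tested individually and in combination, concentration ranges set by clinical Cmax where known.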", "key": {"[1]": {"conditions": "second compound 0.0316 µM, first compound 0.0316 µM"}, "[2]": {"conditions": "second compound 0.0316 µM, first compound 0.1 µM"}, "[3]": {"conditions": "second compound 0.0316 µM, first compound 0.316 µM"}, "[4]": {"conditions": "second compound 0.0316 µM, first compound 1 µM"}, "[5]": {"conditions": "second compound 0.0316 µM, first compound 3.16 µM"}, "[6]": {"conditions": "second compound 0.0316 µM, first compound 10 µM"}, "[7]": {"conditions": "second compound 0.1 µM, first compound 0.0316 µM"}, "[8]": {"conditions": "second compound 0.1 µM, first compound 0.1 µM"}, "[9]": {"conditions": "second compound 0.1 µM, first compound 0.316 µM"}, "[10]": {"conditions": "second compound 0.1 µM, first compound 1 µM"}, "[11]": {"conditions": "second compound 0.1 µM, first compound 3.16 µM"}, "[12]": {"conditions": "second compound 0.1 µM, first compound 10 µM"}, "[13]": {"conditions": "second compound 0.316 µM, first compound 0.0316 µM"}, "[14]": {"conditions": "second compound 0.316 µM, first compound 0.1 µM"}, "[15]": {"conditions": "second compound 0.316 µM, first compound 0.316 µM"}, "[16]": {"conditions": "second compound 0.316 µM, first compound 1 µM"}, "[17]": {"conditions": "second compound 0.316 µM, first compound 3.16 µM"}, "[18]": {"conditions": "second compound 0.316 µM, first compound 10 µM"}, "[19]": {"conditions": "second compound 1 µM, first compound 0.0316 µM"}, "[20]": {"conditions": "second compound 1 µM, first compound 0.1 µM"}, "[21]": {"conditions": "second compound 1 µM, first compound 0.316 µM"}, "[22]": {"conditions": "second compound 1 µM, first compound 1 µM"}, "[23]": {"conditions": "second compound 1 µM, first compound 3.16 µM"}, "[24]": {"conditions": "second compound 1 µM, first compound 10 µM"}, "[25]": {"conditions": "second compound 3.16 µM, first compound 0.0316 µM"}, "[26]": {"conditions": "second compound 3.16 µM, first compound 0.1 µM"}, "[27]": {"conditions": "second compound 3.16 µM, first compound 0.316 µM"}, "[28]": {"conditions": "second compound 3.16 µM, first compound 1 µM"}, "[29]": {"conditions": "second compound 3.16 µM, first compound 3.16 µM"}, "[30]": {"conditions": "second compound 3.16 µM, first compound 10 µM"}, "[31]": {"conditions": "second compound 10 µM, first compound 0.0316 µM"}, "[32]": {"conditions": "second compound 10 µM, first compound 0.1 µM"}, "[33]": {"conditions": "second compound 10 µM, first compound 0.316 µM"}, "[34]": {"conditions": "second compound 10 µM, first compound 1 µM"}, "[35]": {"conditions": "second compound 10 µM, first compound 3.16 µM"}, "[36]": {"conditions": "second compound 10 µM, first compound 10 µM"}}, "note": "pIC50: −log10 of the molar value.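 Further: spheroids exposed to drugs for seven days before viability read.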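 Wherever viability, T/C is given: 100% = DMSO vehicle control wells.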"}
{"smiles": "COc1cccc2c1C(=O)c1c(O)c3c(c(O)c1C2=O)CC(O)(C(=O)CO)CC3OC1CC(N)C(O)C(C)O1", "note": "(centres undefined) + Nc1ccc(C#CCN(C(=O)Cc2ncc(C(F)(F)F)cc2C(F)(F)F)c2ccc(F)cc2)nn1", "values": [{"measurement": "pIC50", "setting": "second compound 0.0316 µM", "value": 7.15}, {"measurement": "pIC50", "setting": "second compound 0.1 µM", "value": 7.06}, {"measurement": "pIC50", "setting": "second compound 0.316 µM", "value": "> 7.50"}, {"measurement": "pIC50", "setting": "second compound 1 µM", "value": 7.26}, {"measurement": "pIC50", "setting": "second compound 3.16 µM", "value": 7.45}, {"measurement": "pIC50", "setting": "second compound 10 µM", "value": 7.11}, {"measurement": "viability, T/C", "setting": "[1]", "value": 67.3, "unit": "%"}, {"measurement": "viability, T/C", "setting": "[2]", "value": 39.4, "unit": "%"}, {"measurement": "viability, T/C", "setting": "[3]", "value": 27.4, "unit": "%"}, {"measurement": "viability, T/C", "setting": "[4]", "value": 22.2, "unit": "%"}, {"measurement": "viability, T/C", "setting": "[5]", "value": 8.04, "unit": "%"}, {"measurement": "viability, T/C", "setting": "[6]", "value": 3.61, "unit": "%"}, {"measurement": "viability, T/C", "setting": "[7]", "value": 69.9, "unit": "%"}, {"measurement": "viability, T/C", "setting": "[8]", "value": 45.5, "unit": "%"}, {"measurement": "viability, T/C", "setting": "[9]", "value": 31.3, "unit": "%"}, {"measurement": "viability, T/C", "setting": "[10]", "value": 19.6, "unit": "%"}, {"measurement": "viability, T/C", "setting": "[11]", "value": 7.02, "unit": "%"}, {"measurement": "viability, T/C", "setting": "[12]", "value": 3.54, "unit": "%"}, {"measurement": "viability, T/C", "setting": "[13]", "value": 49.8, "unit": "%"}, {"measurement": "viability, T/C", "setting": "[14]", "value": 32.1, "unit": "%"}, {"measurement": "viability, T/C", "setting": "[15]", "value": 30.9, "unit": "%"}, {"measurement": "viability, T/C", "setting": "[16]", "value": 23.7, "unit": "%"}, {"measurement": "viability, T/C", "setting": "[17]", "value": 8.73, "unit": "%"}, {"measurement": "viability, T/C", "setting": "[18]", "value": 3.32, "unit": "%"}, {"measurement": "viability, T/C", "setting": "[19]", "value": 58.9, "unit": "%"}, {"measurement": "viability, T/C", "setting": "[20]", "value": 38.8, "unit": "%"}, {"measurement": "viability, T/C", "setting": "[21]", "value": 30.3, "unit": "%"}, {"measurement": "viability, T/C", "setting": "[22]", "value": 18.8, "unit": "%"}, {"measurement": "viability, T/C", "setting": "[23]", "value": 9.11, "unit": "%"}, {"measurement": "viability, T/C", "setting": "[24]", "value": 4.86, "unit": "%"}, {"measurement": "viability, T/C", "setting": "[25]", "value": 52.6, "unit": "%"}, {"measurement": "viability, T/C", "setting": "[26]", "value": 35.4, "unit": "%"}, {"measurement": "viability, T/C", "setting": "[27]", "value": 27.9, "unit": "%"}, {"measurement": "viability, T/C", "setting": "[28]", "value": 20.3, "unit": "%"}, {"measurement": "viability, T/C", "setting": "[29]", "value": 5.88, "unit": "%"}, {"measurement": "viability, T/C", "setting": "[30]", "value": 5.57, "unit": "%"}, {"measurement": "viability, T/C", "setting": "[31]", "value": 68.1, "unit": "%"}, {"measurement": "viability, T/C", "setting": "[32]", "value": 38.4, "unit": "%"}, {"measurement": "viability, T/C", "setting": "[33]", "value": 38, "unit": "%"}, {"measurement": "viability, T/C", "setting": "[34]", "value": 18.9, "unit": "%"}, {"measurement": "viability, T/C", "setting": "[35]", "value": 5.97, "unit": "%"}, {"measurement": "viability, T/C", "setting": "[36]", "value": 6.61, "unit": "%"}]}
{"smiles": "Nc1ccn(C2OC(CO)C(O)C2(F)F)c(=O)n1", "note": "(centres undefined) + Cc1cccc(N(C)C(=O)C2C(O)CCN2c2nc(C)cc(C(F)(F)F)c2C#N)c1", "values": [{"measurement": "pIC50", "setting": "second compound 0.0316 µM", "value": "> 7.50"}, {"measurement": "pIC50", "setting": "second compound 0.1 µM", "value": "> 7.50"}, {"measurement": "pIC50", "setting": "second compound 0.316 µM", "value": "> 7.50"}, {"measurement": "pIC50", "setting": "second compound 1 µM", "value": "> 7.50"}, {"measurement": "pIC50", "setting": "second compound 3.16 µM", "value": "> 7.50"}, {"measurement": "pIC50", "setting": "second compound 10 µM", "value": "> 7.50"}, {"measurement": "viability, T/C", "setting": "[1]", "value": 40.4, "unit": "%"}, {"measurement": "viability, T/C", "setting": "[2]", "value": 27.8, "unit": "%"}, {"measurement": "viability, T/C", "setting": "[3]", "value": 23.1, "unit": "%"}, {"measurement": "viability, T/C", "setting": "[4]", "value": 21, "unit": "%"}, {"measurement": "viability, T/C", "setting": "[5]", "value": 18.2, "unit": "%"}, {"measurement": "viability, T/C", "setting": "[6]", "value": 16.3, "unit": "%"}, {"measurement": "viability, T/C", "setting": "[7]", "value": 32.9, "unit": "%"}, {"measurement": "viability, T/C", "setting": "[8]", "value": 29.7, "unit": "%"}, {"measurement": "viability, T/C", "setting": "[9]", "value": 21.4, "unit": "%"}, {"measurement": "viability, T/C", "setting": "[10]", "value": 21.1, "unit": "%"}, {"measurement": "viability, T/C", "setting": "[11]", "value": 20.2, "unit": "%"}, {"measurement": "viability, T/C", "setting": "[12]", "value": 21.2, "unit": "%"}, {"measurement": "viability, T/C", "setting": "[13]", "value": 40.2, "unit": "%"}, {"measurement": "viability, T/C", "setting": "[14]", "value": 30.9, "unit": "%"}, {"measurement": "viability, T/C", "setting": "[15]", "value": 23.2, "unit": "%"}, {"measurement": "viability, T/C", "setting": "[16]", "value": 23.4, "unit": "%"}, {"measurement": "viability, T/C", "setting": "[17]", "value": 18.8, "unit": "%"}, {"measurement": "viability, T/C", "setting": "[18]", "value": 18.1, "unit": "%"}, {"measurement": "viability, T/C", "setting": "[19]", "value": 37.4, "unit": "%"}, {"measurement": "viability, T/C", "setting": "[20]", "value": 27.7, "unit": "%"}, {"measurement": "viability, T/C", "setting": "[21]", "value": 26.6, "unit": "%"}, {"measurement": "viability, T/C", "setting": "[22]", "value": 23.2, "unit": "%"}, {"measurement": "viability, T/C", "setting": "[23]", "value": 22.8, "unit": "%"}, {"measurement": "viability, T/C", "setting": "[24]", "value": 19.9, "unit": "%"}, {"measurement": "viability, T/C", "setting": "[25]", "value": 37.3, "unit": "%"}, {"measurement": "viability, T/C", "setting": "[26]", "value": 33.8, "unit": "%"}, {"measurement": "viability, T/C", "setting": "[27]", "value": 24.8, "unit": "%"}, {"measurement": "viability, T/C", "setting": "[28]", "value": 19.2, "unit": "%"}, {"measurement": "viability, T/C", "setting": "[29]", "value": 23.2, "unit": "%"}, {"measurement": "viability, T/C", "setting": "[30]", "value": 20.3, "unit": "%"}, {"measurement": "viability, T/C", "setting": "[31]", "value": 39.2, "unit": "%"}, {"measurement": "viability, T/C", "setting": "[32]", "value": 35.4, "unit": "%"}, {"measurement": "viability, T/C", "setting": "[33]", "value": 29.2, "unit": "%"}, {"measurement": "viability, T/C", "setting": "[34]", "value": 23.3, "unit": "%"}, {"measurement": "viability, T/C", "setting": "[35]", "value": 26.2, "unit": "%"}, {"measurement": "viability, T/C", "setting": "[36]", "value": 19.2, "unit": "%"}]}
